Assay [1] addresses T1, ER-α in MCF-7 cells (Homo sapiens, UniProt P03372).
T1 construct: endogenous in cells; host or cells: MCF-7
T1 sequence (P03372 1-595): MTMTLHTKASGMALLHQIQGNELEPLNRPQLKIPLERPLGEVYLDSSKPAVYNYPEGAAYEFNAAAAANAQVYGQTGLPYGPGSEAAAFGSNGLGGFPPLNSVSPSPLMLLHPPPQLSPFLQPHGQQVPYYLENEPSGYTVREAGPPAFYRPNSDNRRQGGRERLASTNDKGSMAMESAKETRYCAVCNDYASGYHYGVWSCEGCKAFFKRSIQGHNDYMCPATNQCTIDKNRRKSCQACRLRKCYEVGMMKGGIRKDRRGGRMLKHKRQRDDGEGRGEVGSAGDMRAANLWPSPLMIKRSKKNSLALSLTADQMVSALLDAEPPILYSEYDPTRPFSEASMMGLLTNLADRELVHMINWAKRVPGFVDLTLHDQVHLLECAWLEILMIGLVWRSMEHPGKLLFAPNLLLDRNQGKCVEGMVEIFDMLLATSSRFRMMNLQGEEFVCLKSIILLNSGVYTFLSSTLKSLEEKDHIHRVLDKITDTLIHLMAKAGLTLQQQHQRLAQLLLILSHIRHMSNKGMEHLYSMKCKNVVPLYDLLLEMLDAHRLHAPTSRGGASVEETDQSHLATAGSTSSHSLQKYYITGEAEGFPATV
The assay can be described thus: Breast Cancer Cell ER-α In Cell Western Assay (SP1). To be noted: 4 or 24 hr post compound addition; for Emax: MCF7, SP1 antibody, read-out: ER-α In Cell Western Assay (SP1) Max Response; for DC50: SP1 antibody, read-out: ER-α In Cell Western Assay (SP1) IC50. The format is cell-based. Put shortly:
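ER-α levels quantified by in-cell western: SP1 signal normalised to DRAQ5 DNA stain, relative to untreated cells (% ER). Compounds at 0.3–0.000003 μM final, 11-point semilog series, 4 or 24 h exposure of MCF-7 cells grown in charcoal-stripped serum.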

Assay [2] relates to MCF-7 cells. In words: Breast Cancer Cell Viability Assays (MCF-7, CellTiter-Glo). The format is cell-based. As to conditions: 5 days' compound exposure; for IC50: Homo sapiens, MCF7, 120 h. Put shortly:
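Percent viability, background-subtracted against untreated wells, was taken from CellTiter-Glo luminescence after 5 days' exposure of MCF-7 cells. Compounds were tested at eleven semilog concentrations, final 0.3–0.000003 μM, in RPMI containing 10% FBS.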

For the compound `N#Cc1cc(C(F)(F)F)ccc1/C(=C(\c1ccc(/C=C/c2noc(=O)[nH]2)cc1)c1ccc2[nH]nc(F)c2c1)C1CCC1` [Example 280, 2-((E)-1-Cyclobutyl-2-(3-fluoro-1H-indazol-5-yl)-2-(4-((E)-2-(5-oxo-4,5-dihydro-1,2,4-oxadiazol-3-yl)vinyl)phenyl)vinyl)-5-(trifluoromethyl)benzonitrile], in assay [1], the Emax was at least 40% and the DC50 is at most 100 nM. For the same compound, in assay [2], the “MCF7 Viability Assay Max Response” value is on record as “++ (++ = a single % value ≧ 40%)” and the IC50 was at most 100 nM.

As for `CS(=O)(=O)c1cc(Cl)ccc1/C(=C(\c1ccc(/C=C/C(=O)O)cc1)c1ccc2scnc2c1)C1CCC1` [Example 281, (E)-3-(4-((E)-1-(Benzo[d]thiazol-5-yl)-2-(4-chloro-2-(methylsulfonyl)phenyl)-2-cyclobutylvinyl)phenyl)acrylic acid], in assay [1], the Emax is at least 40% and the DC50 was at most 100 nM. In assay [2], the “MCF7 Viability Assay Max Response” value was “++ (++ = a single % value ≧ 40%)” and the IC50 was at most 100 nM.

For `CS(=O)(=O)c1cc(Cl)ccc1/C(=C(\c1ccc(/C=C/C(=O)O)cc1)c1ccc2[nH]nc(F)c2c1)C1CCC1` [Example 282, (E)-3-(4-((E)-2-(4-Chloro-2-(methylsulfonyl)phenyl)-2-cyclobutyl-1-(3-fluoro-1H-indazol-5-yl)vinyl)phenyl)acrylic acid], in assay [1], the Emax is at least 40% and the DC50 is at most 100 nM. In assay [2], the “MCF7 Viability Assay Max Response” value is given as “++ (++ = a single % value ≧ 40%)” and the half-inhibitory concentration (IC50) is at most 100 nM.

For `O=c1[nH]nc(/C=C/c2ccc(/C(=C(\c3ccccc3)C3CCC3)c3ccc4[nH]nc(F)c4c3)cc2)[nH]1` [Example 283, 3-((E)-4-((E)-2-Cyclobutyl-1-(3-fluoro-1H-indazol-5-yl)-2-phenylvinyl)styryl)-1H-1,2,4-triazol-5(4H)-one], in assay [1], the Emax is at least 40% and the DC50 was at most 100 nM. In addition, in assay [2], the “MCF7 Viability Assay Max Response” value was “++ (++ = a single % value ≧ 40%)” and the IC50 was at most 100 nM.

Turning to `Fc1n[nH]c2ccc(/C(=C(/c3ccccc3)C3CCC3)c3ccc(/C=C/c4nnc[nH]4)cc3)cc12` [Example 284, 5-((E)-1-(4-((E)-2-(4H-1,2,4-Triazol-3-yl)vinyl)phenyl)-2-cyclobutyl-2-phenylvinyl)-3-fluoro-1H-indazole], in assay [1], the Emax was at least 40% and the DC50 was at most 100 nM. For the same compound, in assay [2], the “MCF7 Viability Assay Max Response” value is reported as “++ (++ = a single % value ≧ 40%)” and the IC50 is at most 100 nM.

`Fc1n[nH]c2ccc(/C(=C(/c3ccccc3)C3CCC3)c3ccc(/C=C/c4ncc[nH]4)cc3)cc12` [Example 285, 5-((E)-1-(4-((E)-2-(1H-Imidazol-2-yl)vinyl)phenyl)-2-cyclobutyl-2-phenylvinyl)-3-fluoro-1H-indazole]: in assay [1], the Emax was at least 40% and the DC50 is at most 100 nM. Also, in assay [2], the “MCF7 Viability Assay Max Response” value is on record as “++ (++ = a single % value ≧ 40%)” and the IC50 was at most 100 nM.

Regarding `Fc1n[nH]c2ccc(/C(=C(/c3ccccc3)C3CCC3)c3ccc(/C=C/c4cnn[nH]4)cc3)cc12` [Example 286, 5-((E)-1-(4-((E)-2-(1H-1,2,3-Triazol-5-yl)vinyl)phenyl)-2-cyclobutyl-2-phenylvinyl)-3-fluoro-1H-indazole], in assay [1], the Emax was at least 40% and the DC50 was at most 100 nM. In addition, in assay [2], the “MCF7 Viability Assay Max Response” value is listed as “++ (++ = a single % value ≧ 40%)” and the IC50 is at most 100 nM.

For the origin of these results see patent US9499538B2, “Estrogen receptor modulators and uses thereof” (Seragon Pharmaceuticals, Inc., priority 2012, dated 2016).
